Kd and IC50 data for 16 compounds are collected here from patent US20240190849A1, “AMINOPYRIMIDINE COMPOUNDS AND METHODS OF THEIR USE” (TYRA BIOSCIENCES, INC., priority 2021, published 2024).

In one test the target is T1, FGFR1 (Homo sapiens, UniProt P11362).
T1 construct: made in house; host or cells: E. coli derived from BL21, infected with T7 phage
In words: Kinase binding assay (kinase-tagged T7 phage, affinity beads, qPCR readout), FGFR1. Particulars: FGFR binding data. In a few lines:
(§1)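 Phage lysate kinase + liganded magnetic beads + compound, 11-pt 3-fold series, 0.9% DMSO; 1 h RT shaking. Wash, elute 30 min with 0.5 μM non-biotinylated ligand; qPCR readout. Hill fit, slope −1 → Kd.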

The next test concerns the target T2, FGFR3 (V555M) (Homo sapiens, UniProt P22607, V555M).
T2 construct: made in house; host or cells: E. coli derived from BL21, infected with T7 phage
In words: Kinase binding assay (kinase-tagged T7 phage, affinity beads, qPCR readout), FGFR3 (V555M). Conditions: FGFR binding data. In a few lines:
as §1

The test system of test [1] is RT112/84 (Bladder Cancer), FGFR3-TACC3 fusion. In words: Cancer cell viability assay (Cell Titer-Glo), RT112/84. The format is cell-based. Particulars: Homo sapiens, RT112/84 cells, 72 hours. An excerpt:
(§2) RT112/84, UM-UC-14, SNU-16 and KG-1 Cancer Cell Line Cell Viability Assays
(§3) To detect the change of intracellular ATP by Cell Titer-Glo@ and to evaluate the inhibitory effect of the compounds on cancer cell lines by determining the in vitro IC50 value of the compounds.
(§4) Cell Titer-Glo@ 2.0 Luminescent cell viability assay reagent was purchased from Promega (Madison, WI). RT112/84, SNU-16, and KG-1 cell lines were purchased from American Type Culture Collection (Manassas, VA). UM-UC-14 cell line was purchased from Sigma (St. Louis, MO). RT112/84, UM-UC-14, SNU-16, and KG-1 cells were cultured in RPMI1640 media supplemented with 10% fetal bovine serum. Cultures were maintained at 37° C. in a humidified atmosphere of 5% CO2 and 95% air.
(§5) Cell Viability Assay Procedure: Cells were plated in 96-well clear bottom/white plates (Corning #3903) at 10,000 cells/well in 100 μl of media, incubated overnight. The next day, test compound DMSO stock solutions were made at 10 mM and 2 μM final concentration. Compounds were then added to cells in a 9-dose, […] dilution series starting at 30 μM with an HP 300e Digital Dispenser (each dose was applied in triplicate). DMSO was backfilled to each well up to 301 nL total volume of test compound+DMSO, and a total of 301 nL DMSO was added to a control/no test compound well in triplicate. The cells in cell culture plates were incubated with the compounds at 37° C. and 5% CO2 for 72 hours. Then 50 μl of Cell Titer Glo 2.0 reagent was added to each well of the cell culture plates. The contents were covered from light and mixed on an orbital shaker at room temperature for 10 min. Luminescence was recorded by a Synergy H1 Microplate Reader (Biotek, Winooski, VT). Cells were assessed as a percentage of DMSO only treated control cells. Curves were plotted and IC50 values were calculated using the GraphPad Prism 8 program based on a sigmoidal dose-response equation (4 parameter).
For orientation: In ATP-based viability assays light output follows the ATP content of the culture.

The target in the next test is T3, FGFR2 (Homo sapiens, UniProt P21802).
T3 construct: made in house; host or cells: E. coli derived from BL21, infected with T7 phage
T3 sequence (P21802 22-821): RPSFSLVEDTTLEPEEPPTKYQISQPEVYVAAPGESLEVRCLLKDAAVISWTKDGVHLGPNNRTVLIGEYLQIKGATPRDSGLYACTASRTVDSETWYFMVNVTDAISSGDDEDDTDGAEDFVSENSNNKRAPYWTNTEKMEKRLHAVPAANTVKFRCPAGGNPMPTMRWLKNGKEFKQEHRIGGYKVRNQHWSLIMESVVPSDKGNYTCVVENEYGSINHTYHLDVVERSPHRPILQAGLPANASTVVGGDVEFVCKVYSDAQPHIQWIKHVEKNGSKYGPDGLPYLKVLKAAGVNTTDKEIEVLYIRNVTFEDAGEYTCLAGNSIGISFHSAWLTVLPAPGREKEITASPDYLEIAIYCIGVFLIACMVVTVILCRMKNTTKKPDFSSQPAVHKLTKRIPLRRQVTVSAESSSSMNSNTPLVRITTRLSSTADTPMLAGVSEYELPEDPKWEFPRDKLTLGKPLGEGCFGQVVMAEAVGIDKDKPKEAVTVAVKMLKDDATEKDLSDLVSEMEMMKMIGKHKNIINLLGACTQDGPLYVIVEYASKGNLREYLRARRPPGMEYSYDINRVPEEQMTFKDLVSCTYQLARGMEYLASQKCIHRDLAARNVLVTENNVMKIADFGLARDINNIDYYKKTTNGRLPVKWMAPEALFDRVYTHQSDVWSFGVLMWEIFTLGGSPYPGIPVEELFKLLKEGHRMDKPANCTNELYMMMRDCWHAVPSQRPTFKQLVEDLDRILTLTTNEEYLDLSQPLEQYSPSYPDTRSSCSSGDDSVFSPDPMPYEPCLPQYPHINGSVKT
In words: Kinase binding assay (kinase-tagged T7 phage, affinity beads, qPCR readout), FGFR2. Particulars: FGFR binding data. The method, boiled down: as §1
Background: Real-time PCR tracks product formation cycle by cycle.

The target of the next test is T4, FGFR3 (Homo sapiens, UniProt P22607).
T4 construct: made in house; host or cells: E. coli derived from BL21, infected with T7 phage
T4 sequence (P22607 23-806): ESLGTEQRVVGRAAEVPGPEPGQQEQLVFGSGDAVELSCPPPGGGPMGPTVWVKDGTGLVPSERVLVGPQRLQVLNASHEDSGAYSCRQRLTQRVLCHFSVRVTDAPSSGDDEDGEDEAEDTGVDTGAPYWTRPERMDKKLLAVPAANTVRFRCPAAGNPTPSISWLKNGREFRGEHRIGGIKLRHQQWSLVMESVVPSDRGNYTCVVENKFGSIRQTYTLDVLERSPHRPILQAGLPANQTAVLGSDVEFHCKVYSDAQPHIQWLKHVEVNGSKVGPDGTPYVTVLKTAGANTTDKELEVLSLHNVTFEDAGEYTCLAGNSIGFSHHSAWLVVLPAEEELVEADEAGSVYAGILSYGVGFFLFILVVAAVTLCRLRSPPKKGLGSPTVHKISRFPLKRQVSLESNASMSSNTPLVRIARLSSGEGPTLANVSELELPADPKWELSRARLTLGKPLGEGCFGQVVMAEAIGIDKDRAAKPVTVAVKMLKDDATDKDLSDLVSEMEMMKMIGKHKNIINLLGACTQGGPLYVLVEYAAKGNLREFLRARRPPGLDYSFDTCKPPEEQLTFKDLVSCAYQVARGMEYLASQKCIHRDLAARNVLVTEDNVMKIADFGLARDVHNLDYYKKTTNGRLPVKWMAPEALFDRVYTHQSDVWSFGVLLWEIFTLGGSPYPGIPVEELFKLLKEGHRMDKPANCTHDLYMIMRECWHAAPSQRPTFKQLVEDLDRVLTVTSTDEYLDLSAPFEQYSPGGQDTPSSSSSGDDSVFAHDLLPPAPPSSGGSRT
Nature of the test: Kinase binding assay (kinase-tagged T7 phage, affinity beads, qPCR readout), FGFR3. Particulars: FGFR binding data. In a few lines:
as §1

Test [2] deals with SNU-16 (Gastric Carcinoma), FGFR2 amplification. Nature of the test: Cancer cell viability assay (Cell Titer-Glo), SNU-16. The format is cell-based. Particulars: Homo sapiens, SNU-16 cells, 72 hours, read-out: SNU16 FGFR2 (IC50 nM). The method, boiled down:
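Cells seeded at 10,000/well in RPMI1640 with 10% FBS, then exposed 72 h at 37° C. to a 9-point 10-fold dilution series from 30 μM, in triplicate. Viability read as ATP luminescence (CellTiter-Glo 2.0) as percent of DMSO control; IC50 from 4-parameter sigmoidal fit.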

In test [3] the test system is UM-UC-14 (Bladder Cancer), FGFR3(S249C). In words: Cancer cell viability assay (Cell Titer-Glo), UM-UC-14. The format is cell-based. Conditions: UMUC14, UM-UC-14 cells, 72 hours.
Description: as §2, §3, §4, §5

As a reminder, the Kd is the concentration at which binding is half-saturated. Higher therefore signals weaker binding. For orientation: IC50 means the point on the concentration scale where inhibition reaches its midpoint.

Structures are written as SMILES.

T1 sequence (P11362 22-822): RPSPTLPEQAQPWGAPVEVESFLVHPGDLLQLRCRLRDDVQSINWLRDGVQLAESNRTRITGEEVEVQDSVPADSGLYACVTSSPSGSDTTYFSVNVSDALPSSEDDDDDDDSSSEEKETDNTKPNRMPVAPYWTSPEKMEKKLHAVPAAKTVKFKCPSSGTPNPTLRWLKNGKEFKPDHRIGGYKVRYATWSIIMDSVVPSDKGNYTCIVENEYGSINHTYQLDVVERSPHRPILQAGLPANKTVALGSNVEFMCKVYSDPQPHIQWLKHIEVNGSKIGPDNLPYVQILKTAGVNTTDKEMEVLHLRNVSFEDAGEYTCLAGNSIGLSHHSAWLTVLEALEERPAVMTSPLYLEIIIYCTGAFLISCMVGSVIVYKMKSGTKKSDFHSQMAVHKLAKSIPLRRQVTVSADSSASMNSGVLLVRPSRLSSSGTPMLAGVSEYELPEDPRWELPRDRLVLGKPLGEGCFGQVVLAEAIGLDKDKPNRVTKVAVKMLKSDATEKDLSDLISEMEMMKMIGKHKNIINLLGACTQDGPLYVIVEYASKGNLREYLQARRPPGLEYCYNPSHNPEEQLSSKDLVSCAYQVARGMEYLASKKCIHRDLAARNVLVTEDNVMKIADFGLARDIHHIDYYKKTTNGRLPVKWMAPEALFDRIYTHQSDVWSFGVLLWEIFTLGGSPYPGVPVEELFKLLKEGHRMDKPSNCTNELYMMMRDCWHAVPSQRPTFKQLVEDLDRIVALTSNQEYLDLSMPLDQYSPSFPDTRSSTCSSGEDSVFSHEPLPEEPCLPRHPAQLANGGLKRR
T2 sequence (P22607 23-806 V555M): as the sequence (P22607 23-806) above, with V533M counted along it

Take `C=CC(=O)Nc1ccc2c(c1)c(C)cn2-c1nc(Nc2cnn(C[C@H](C)O)c2)ncc1F` [Example 186, N-[1-[5-Fluoro-2-[[1-[(2S)-2-hydroxypropyl]pyrazol-4-yl]amino]pyrimidin-4-yl]-3-methyl-indol-5-yl]prop-2-enamide]: the dissociation constant Kd at FGFR1, at FGFR3 (V555M), at FGFR2 and on FGFR3 was 0.1 to 100 nM in each case. The IC50 in test [1] and in test [2] was 0.1 to 100 nM each time.

Regarding `C=CC(=O)Nc1ccc2c(c1)c(C)cn2-c1nc(Nc2cn(C)nc2C#N)ncc1Cl` [Example 70, N-[1-[5-chloro-2-[(3-cyano-1-methyl-pyrazol-4-yl)amino]pyrimidin-4-yl]-3-methyl-indol-5-yl]prop-2-enamide], the Kd at FGFR1 lay in the range of 100 to 250 nM; on FGFR3 (V555M), 0.1 to 100 nM; on FGFR2 it was 0.1 to 100 nM; on FGFR3 it was 0.1 to 100 nM. Also, in test [1], the IC50 was in the range of 250 to 1000 nM.

As to `C=CC(=O)Nc1ccc2c(-c3nc(Nc4ccc(N5CCN(C)CC5)cc4)ncc3Cl)cn(C)c2c1` [Example 50, N-[3-[5-chloro-2-[4-(4-methylpiperazin-1-yl)anilino]-pyrimidin-4-yl]-1-methyl-indol-6-yl]prop-2-enamide], the IC50 in test [1] lay within 0.1 to 100 nM.

Consider `C=CC(=O)Nc1ccc2c(c1)c(C)cn2-c1nc(Nc2cccc(CN3CCOCC3)c2)ncc1Cl` [Example 78, N-[1-[5-chloro-2-[3-(morpholinomethyl)anilino]pyrimidin-4-yl]-3-methyl-indol-5-yl]prop-2-enamide], for which the equilibrium dissociation constant (Kd) on FGFR1, on FGFR3 (V555M), on FGFR2 and on FGFR3 was 0.1 to 100 nM in each case. For the same compound, the IC50 in test [1] and in test [2] was 0.1 to 100 nM throughout.

Take `C=CC(=O)Nc1ccc2c(c1)c(C)cn2-c1nc(Nc2ccc(CN3CCOCC3)c(F)c2)ncc1Cl` [Example 68, N-[1-[5-chloro-2-[3-fluoro-4-(morpholinomethyl)anilino]pyrimidin-4-yl]-3-methyl-indol-5-yl]prop-2-enamide]: the concentration for half-maximal inhibition (IC50) in test [3] and in test [1] was 0.1 to 100 nM throughout. Besides, the Kd on FGFR1, at FGFR3 (V555M), at FGFR2 and at FGFR3 was 0.1 to 100 nM each time.

`C=CC(=O)Nc1ccc2c(c1)c(C)cn2-c1nc(Nc2ccc(N3CCOCC3)cc2)ncc1C#N` [Example 38, N-[1-[5-cyano-2-(4-morpholinoanilino)pyrimidin-4-yl]-3-methyl-indol-5-yl]prop-2-enamide]: the Kd at FGFR1, on FGFR3 (V555M), at FGFR2 and at FGFR3 was 0.1 to 100 nM throughout. Moreover, the IC50 in test [1] is 0.1 to 100 nM.

As for `C=CC(=O)Nc1ccc2c(ccn2-c2nc(Nc3ccc(N4CCN(C)CC4)cc3)ncc2Cl)c1` [Example 1, N-[1-[5-chloro-2-[4-(4-methylpiperazin-1-yl)anilino]pyrimidin-4-yl]indol-5-yl]prop-2-enamide], the Kd on FGFR1, at FGFR3 (V555M), on FGFR2 and at FGFR3 was 0.1 to 100 nM throughout. Also, the IC50 in test [1] was in the range of 100 to 250 nM.

Regarding `C=CC(=O)Nc1ccc2c(c1)c(C)cn2-c1nc(Nc2c(C)nn(C)c2C)ncc1Cl` [Example 41, N-[1-[5-chloro-2-[(1,3,5-trimethylpyrazol-4-yl)amino]pyrimidin-4-yl]-3-methyl-indol-5-yl]prop-2-enamide], the Kd at FGFR1 lay within 100 to 250 nM; at FGFR3 (V555M), 0.1 to 100 nM; at FGFR2, 0.1 to 100 nM; on FGFR3, 0.1 to 100 nM. For the same compound, the IC50 in test [1] lay in the range of 250 to 1000 nM.

As for `C=CC(=O)Nc1ccc2c(-c3ccnc(Nc4cnn(C(F)F)c4)n3)cn(C)c2c1` [Example 188, N-[3-[2-[[1-(difluoromethyl)pyrazol-4-yl]amino]pyrimidin-4-yl]-1-methyl-indol-6-yl]prop-2-enamide], the IC50 in test [3] and in test [1] was 0.1 to 100 nM throughout. The Kd at FGFR1, at FGFR3 (V555M), at FGFR2 and on FGFR3 was 0.1 to 100 nM each time.

For `C=CC(=O)Nc1ccc2c(-c3ccnc(Nc4cnn(C5CCC5)c4)n3)cn(C)c2c1` [Example 189, N-[3-[2-[(1-cyclobutylpyrazol-4-yl)amino]pyrimidin-4-yl]-1-methyl-indol-6-yl]prop-2-enamide], the IC50 in test [3] and in test [1] was 0.1 to 100 nM each time. The Kd at FGFR1, on FGFR3 (V555M), at FGFR2 and on FGFR3 was 0.1 to 100 nM in each case.

Turning to `C=CC(=O)Nc1ccc2c(c1)c(C)cn2-c1nc(Nc2cnn(CCO)c2)ncc1Cl` [Example 89, N-[1-[5-chloro-2-[[1-(2-hydroxyethyl)pyrazol-4-yl]amino]pyrimidin-4-yl]-3-methyl-indol-5-yl]prop-2-enamide], the IC50 in test [3] and in test [2] was 0.1 to 100 nM in each case. Moreover, the Kd on FGFR1, at FGFR3 (V555M), on FGFR2 and on FGFR3 was 0.1 to 100 nM each time.

Turning to `C=CC(=O)Nc1ccc2c(c1)c(C)cn2-c1nc(Nc2cnn(C)c2)ncc1C#N` [Example 32, N-[1-[5-cyano-2-[(1-methylpyrazol-4-yl)amino]pyrimidin-4-yl]-3-methyl-indol-5-yl]prop-2-enamide], the Kd on FGFR1, on FGFR3 (V555M), at FGFR2 and on FGFR3 was 0.1 to 100 nM each time. Further, the IC50 in test [1] fell in the range of 100 to 250 nM.

As for `C=CC(=O)Nc1ccc2c(c1)c(C)cn2-c1nc(Nc2cn(C)nc2C)ncc1C` [Example 187, N-[1-[2-[(1,3-dimethylpyrazol-4-yl)amino]-5-methyl-pyrimidin-4-yl]-3-methyl-indol-5-yl]prop-2-enamide], the Kd on FGFR1, on FGFR3 (V555M), on FGFR2 and at FGFR3 was 0.1 to 100 nM each time. Besides, the IC50 in test [1] and in test [2] was 0.1 to 100 nM each time.

With `C=CC(=O)Nc1ccc2c(c1)c(C)cn2-c1nc(Nc2cnn(C[C@@H](C)O)c2)ncc1F` [Example 185, N-[1-[5-Fluoro-2-[[1-[(2R)-2-hydroxypropyl]pyrazol-4-yl]amino]pyrimidin-4-yl]-3-methyl-indol-5-yl]prop-2-enamide], the Kd at FGFR1, on FGFR3 (V555M), at FGFR2 and on FGFR3 was 0.1 to 100 nM in each case. The IC50 in test [1] and in test [2] was 0.1 to 100 nM in each case.

Regarding `C=CC(=O)Nc1ccc2c(c1)c(C)cn2-c1nc(Nc2cnn(CCO)c2)ncc1F` [Example 90, N-[1-[5-fluoro-2-[[1-(2-hydroxyethyl)pyrazol-4-yl]amino]pyrimidin-4-yl]-3-methyl-indol-5-yl]prop-2-enamide], the half-inhibitory concentration (IC50) in test [3] and in test [2] was 0.1 to 100 nM in each case. Besides, the Kd at FGFR1, on FGFR3 (V555M), at FGFR2 and on FGFR3 was 0.1 to 100 nM each time.

Consider `C=CC(=O)Nc1ccc2c(-c3ccnc(Nc4cnn(C(F)(F)F)c4)n3)cn(C)c2c1` [Example 184, N-[1-methyl-3-[2-[[1-(trifluoromethyl)pyrazol-4-yl]amino]pyrimidin-4-yl]indol-6-yl]prop-2-enamide], for which the IC50 in test [3] and in test [2] was 0.1 to 100 nM each time. For the same compound, the Kd was in the range of 250 to 1000 nM at FGFR1, 0.1 to 100 nM at FGFR3 (V555M), 0.1 to 100 nM at FGFR2 and 0.1 to 100 nM on FGFR3.
